Laboratory results as given in ChEMBL document CHEMBL4837239, “Identification of Thieno[3,2-d]pyrimidine Derivatives as Dual Inhibitors of Focal Adhesion Kinase and FMS-like Tyrosine Kinase 3” (J Med Chem, 2021).
Active and inactive are the calls of the source. The rule behind the calls is not given here.

What was measured:
MDA-MB-231 [1] = assay: In vivo antitumor activity against human MDA-MB-231 cells xenografted in Balb/c mouse assessed as tumor volume at 70 mg/kg, po once daily measured for 16 days (reference value: 600 mm^3); format: functional; conditions: time 16 day
[2] = target: Non-receptor tyrosine-protein kinase TYK2 (Homo sapiens, UniProt P29597); assay: Inhibition of TYK2 (unknown origin) at 0.1 uM
[3] = target: Tyrosine-protein kinase JAK3 (Homo sapiens) (UniProt P52333); assay: Inhibition of JAK3 (unknown origin) at 0.1 uM
[4] = test system: T1, Receptor-type tyrosine-protein kinase FLT3 (Homo sapiens), P36888 [D835Y]; assay: Inhibition of FLT3-D835Y mutant (unknown origin) expressed in mouse BaF3 cells assessed as decrease in ERK phosphorylation at 1 nM by Western blot analysis; format: cell-based
T1 sequence (whole entry): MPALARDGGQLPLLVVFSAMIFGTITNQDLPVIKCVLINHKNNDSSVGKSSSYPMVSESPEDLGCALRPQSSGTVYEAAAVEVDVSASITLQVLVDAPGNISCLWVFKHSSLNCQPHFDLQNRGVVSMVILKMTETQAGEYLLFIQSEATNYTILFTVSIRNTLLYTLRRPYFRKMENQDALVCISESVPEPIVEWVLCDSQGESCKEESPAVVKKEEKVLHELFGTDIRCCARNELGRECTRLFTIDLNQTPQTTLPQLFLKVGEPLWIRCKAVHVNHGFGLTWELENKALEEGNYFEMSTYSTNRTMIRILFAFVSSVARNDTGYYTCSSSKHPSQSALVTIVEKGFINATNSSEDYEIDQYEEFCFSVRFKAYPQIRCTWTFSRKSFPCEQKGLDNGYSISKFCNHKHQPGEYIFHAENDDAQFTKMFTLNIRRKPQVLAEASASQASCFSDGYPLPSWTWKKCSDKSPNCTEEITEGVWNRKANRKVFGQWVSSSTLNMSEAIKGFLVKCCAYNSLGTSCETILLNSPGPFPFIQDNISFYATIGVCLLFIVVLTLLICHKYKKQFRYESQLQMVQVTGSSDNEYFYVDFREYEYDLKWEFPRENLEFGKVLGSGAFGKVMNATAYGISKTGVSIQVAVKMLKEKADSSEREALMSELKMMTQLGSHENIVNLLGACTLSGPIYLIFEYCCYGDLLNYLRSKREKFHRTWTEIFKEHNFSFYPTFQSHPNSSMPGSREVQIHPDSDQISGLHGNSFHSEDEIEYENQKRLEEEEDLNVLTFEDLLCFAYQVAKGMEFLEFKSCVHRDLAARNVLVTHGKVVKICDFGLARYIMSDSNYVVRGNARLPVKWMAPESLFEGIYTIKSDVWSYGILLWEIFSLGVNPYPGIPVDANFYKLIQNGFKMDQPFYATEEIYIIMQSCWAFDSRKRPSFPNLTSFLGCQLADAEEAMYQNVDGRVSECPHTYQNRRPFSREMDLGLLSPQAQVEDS

[5] = test system: T1, Receptor-type tyrosine-protein kinase FLT3 (Homo sapiens), P36888 [D835Y]; assay: Inhibition of FLT3-D835Y mutant (unknown origin) expressed in mouse Ba/F3 cells assessed as decrease in ERK phosphorylation at 10 nM by Western blot analysis; format: cell-based; conditions: BaF3
[6] = target: Proto-oncogene tyrosine-protein kinase Src (Homo sapiens, UniProt P12931); assay: Inhibition of Src (unknown origin) at 0.1 uM
Focal adhesion kinase 1 [7] = target: T2, Focal adhesion kinase 1 (Homo sapiens, UniProt Q05397); assay: Inhibition of FAK autophosphorylation at Y925 in human HCT-116 cells at 5 uM incubated for 24 hrs by Western blot analysis; format: cell-based
[8] = target: Proto-oncogene tyrosine-protein kinase ROS (Homo sapiens, UniProt P08922); assay: Inhibition of ROS (unknown origin)
MDA-MB-231 [9] = assay: Antimetastatic activity against human MDA-MB-231 cells expressing firefly luciferase xenografted NSG orthotopic mouse model assessed as reduction in luminescence intensity at 40 to 70 mg/kg, po once daily measured for 2 weeks; format: functional, organism-based; conditions: dose 40-70 mg/kg
Focal adhesion kinase 1 [10] = target: T2, Focal adhesion kinase 1; assay: Inhibition of FAK autophosphorylation at Y576 in human HCT-116 cells at 5 uM incubated for 24 hrs by Western blot analysis; format: cell-based
MDA-MB-231 [11] = assay: Antimetastatic activity against human MDA-MB-231 cells expressing firefly luciferase xenografted NSG orthotopic mouse model assessed as reduction in luminescence intensity at lung at 70 mg/kg, po once daily measured for 2 weeks; format: functional, organism-based
[12] = target: Cyclin-dependent kinase 4 (Homo sapiens, UniProt P11802); assay: Inhibition of CDK4 (unknown origin) at 0.1 uM
[13] = Toxicity in mouse xenografted with human MV4-11 cells assessed as change in body weight at 20 to 50 mg/kg, po; format: organism-based; conditions: in vivo, dose 20-50 mg/kg
[14] = target: Tyrosine-protein kinase Fes/Fps (Homo sapiens, UniProt P07332); assay: Inhibition of Fes (unknown origin)
MDA-MB-231 [15] = assay: Antimetastatic activity against human MDA-MB-231 cells expressing firefly luciferase xenografted NSG orthotopic mouse model assessed as reduction in luminescence intensity at chest region at 70 mg/kg, po once daily measured for 2 weeks; format: functional, organism-based
MDA-MB-231 [16] = assay: Antiinvasive activity in human MDA-MB-231 cells assessed as suppression of invasion measured after 12 hrs by trans well experiment; format: functional; conditions: dose 0.5-1 µM, at 0.5 to 1 µM
Focal adhesion kinase 1 [17] = target: T2, Focal adhesion kinase 1; assay: Inhibition of FAK autophosphorylation at Y397 in human MDA-MB-231 cells at 5 uM incubated for 24 hrs by Western blot analysis; format: cell-based
MV4-11 = assay: In vivo antitumor activity against human MV4-11 cells xenografted in mouse assessed as tumor weight at 50 mg/kg, po relative to control; format: functional, organism-based
MDA-MB-231 [18] = assay: Antimetastatic activity against human MDA-MB-231 cells expressing firefly luciferase xenografted NSG orthotopic mouse model assessed as suppression of lymphogenous metastasis at 70 mg/kg, po once daily measured for 2 weeks; format: functional, organism-based
MDA-MB-231 [19] = assay: In vivo antitumor activity against human MDA-MB-231 cells xenografted in Balb/c mouse assessed as reduction in tumor weight at 40 to 70 mg/kg, po once daily measured for 16 days; format: functional, organism-based; conditions: dose 40-70 mg/kg, time 16.0 day
Focal adhesion kinase 1 [20] = target: T2, Focal adhesion kinase 1; assay: Inhibition of FAK in human MDA-MB-231 cells assessed as inhibition of Pyk2 phosphorylation at 0.5 to 5 uM incubated for 24 hrs by Western blot analysis; format: cell-based; conditions: dose 0.5-5 µM
Focal adhesion kinase 1 [21] = target: T2, Focal adhesion kinase 1; assay: Inhibition of FAK autophosphorylation at Y397 in human HCT-116 cells at 5 uM incubated for 24 hrs by Western blot analysis; format: cell-based
BaF3 = assay: Inhibition of FLT3-ITD/[…] mutant (unknown origin) expressed in mouse BaF3 cells assessed as decrease in autophosphorylation at 1 nM by Western blot analysis; format: cell-based; conditions: Homo sapiens
CYP2C19 = CYP2C19 (Homo sapiens, UniProt P33261); assay: Inhibition of CYP2C19 (unknown origin) at 10 uM relative to control; format: ADME
[22] = target: Tyrosine-protein kinase JAK3 (Homo sapiens, UniProt P52333); assay: Inhibition of JAK3 (unknown origin)
MDA-MB-231 [23] = assay: Growth inhibition of anchorage-Independent human MDA-MB-231 cells assessed as decrease in number of colonies at 10 uM incubated for 72 hrs by MTT assay relative to control; format: functional

T2 sequence (Q05397 2-1052 limits assumed): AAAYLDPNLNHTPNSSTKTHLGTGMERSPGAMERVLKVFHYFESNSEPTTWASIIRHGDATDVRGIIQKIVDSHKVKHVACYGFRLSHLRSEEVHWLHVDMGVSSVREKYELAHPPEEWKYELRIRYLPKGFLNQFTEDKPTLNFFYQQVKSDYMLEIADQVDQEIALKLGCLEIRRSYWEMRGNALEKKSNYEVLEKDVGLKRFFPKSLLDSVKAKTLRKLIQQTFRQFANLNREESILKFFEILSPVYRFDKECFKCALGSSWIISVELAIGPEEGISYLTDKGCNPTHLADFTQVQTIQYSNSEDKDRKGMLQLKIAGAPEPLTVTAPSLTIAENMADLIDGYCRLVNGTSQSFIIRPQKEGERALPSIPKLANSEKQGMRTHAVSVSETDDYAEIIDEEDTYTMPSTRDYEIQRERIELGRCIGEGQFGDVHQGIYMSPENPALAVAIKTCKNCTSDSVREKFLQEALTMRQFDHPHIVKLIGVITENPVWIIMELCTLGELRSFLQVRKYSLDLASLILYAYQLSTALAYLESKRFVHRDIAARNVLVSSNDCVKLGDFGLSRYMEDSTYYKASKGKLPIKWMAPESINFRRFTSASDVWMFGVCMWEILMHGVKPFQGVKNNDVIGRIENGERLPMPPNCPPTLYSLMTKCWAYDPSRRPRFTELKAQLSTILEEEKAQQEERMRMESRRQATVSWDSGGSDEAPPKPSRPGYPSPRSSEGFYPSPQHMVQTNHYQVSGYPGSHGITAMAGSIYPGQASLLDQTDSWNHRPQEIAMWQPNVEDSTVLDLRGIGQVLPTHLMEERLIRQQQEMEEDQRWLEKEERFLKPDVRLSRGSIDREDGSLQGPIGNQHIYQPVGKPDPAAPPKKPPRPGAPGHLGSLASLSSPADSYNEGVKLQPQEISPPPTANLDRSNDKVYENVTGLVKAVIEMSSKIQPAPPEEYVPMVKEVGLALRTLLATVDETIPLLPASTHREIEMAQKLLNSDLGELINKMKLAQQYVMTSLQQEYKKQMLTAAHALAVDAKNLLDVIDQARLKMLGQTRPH
Sequence of Cyclin-dependent kinase 4 (P11802 whole entry): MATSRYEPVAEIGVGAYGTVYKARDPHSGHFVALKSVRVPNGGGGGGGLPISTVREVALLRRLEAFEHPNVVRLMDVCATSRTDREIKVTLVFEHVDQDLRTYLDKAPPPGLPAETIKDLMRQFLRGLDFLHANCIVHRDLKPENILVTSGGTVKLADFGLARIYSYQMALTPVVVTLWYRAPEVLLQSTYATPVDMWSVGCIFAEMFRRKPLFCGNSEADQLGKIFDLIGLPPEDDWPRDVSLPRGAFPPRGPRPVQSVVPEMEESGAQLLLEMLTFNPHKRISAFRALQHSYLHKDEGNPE
Sequence of Tyrosine-protein kinase JAK3 (P52333 whole entry): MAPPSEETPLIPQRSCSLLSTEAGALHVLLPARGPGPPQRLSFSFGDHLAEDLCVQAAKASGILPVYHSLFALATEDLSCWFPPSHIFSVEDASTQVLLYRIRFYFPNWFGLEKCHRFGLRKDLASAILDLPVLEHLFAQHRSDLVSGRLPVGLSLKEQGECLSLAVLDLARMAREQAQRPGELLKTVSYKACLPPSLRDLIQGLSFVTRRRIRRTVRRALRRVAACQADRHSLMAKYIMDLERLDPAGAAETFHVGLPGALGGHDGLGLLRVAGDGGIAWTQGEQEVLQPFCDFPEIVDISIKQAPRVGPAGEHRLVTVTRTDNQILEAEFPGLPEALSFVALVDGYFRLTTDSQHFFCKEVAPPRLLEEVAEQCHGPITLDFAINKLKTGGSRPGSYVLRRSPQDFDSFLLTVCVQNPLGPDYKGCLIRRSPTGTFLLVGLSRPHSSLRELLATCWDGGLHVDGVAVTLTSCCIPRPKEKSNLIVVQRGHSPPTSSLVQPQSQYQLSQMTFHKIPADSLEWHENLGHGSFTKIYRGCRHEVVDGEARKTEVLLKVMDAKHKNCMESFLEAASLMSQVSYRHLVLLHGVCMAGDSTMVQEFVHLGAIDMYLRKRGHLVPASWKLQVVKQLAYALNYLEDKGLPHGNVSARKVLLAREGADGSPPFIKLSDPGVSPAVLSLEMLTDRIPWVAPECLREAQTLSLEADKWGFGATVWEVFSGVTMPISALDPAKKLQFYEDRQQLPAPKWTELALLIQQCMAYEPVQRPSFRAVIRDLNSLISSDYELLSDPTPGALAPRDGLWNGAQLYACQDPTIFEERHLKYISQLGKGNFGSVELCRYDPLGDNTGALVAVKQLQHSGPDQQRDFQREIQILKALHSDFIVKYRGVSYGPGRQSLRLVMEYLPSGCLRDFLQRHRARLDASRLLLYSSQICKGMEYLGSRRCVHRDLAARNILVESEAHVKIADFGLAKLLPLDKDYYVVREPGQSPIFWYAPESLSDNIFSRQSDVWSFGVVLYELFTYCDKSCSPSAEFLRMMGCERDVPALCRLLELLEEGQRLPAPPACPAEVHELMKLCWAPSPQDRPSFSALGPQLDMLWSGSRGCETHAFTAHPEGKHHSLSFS
Sequence of Tyrosine-protein kinase JAK3 (Homo sapiens) (P52333 whole entry): as above
Sequence of Proto-oncogene tyrosine-protein kinase ROS (P08922 whole entry): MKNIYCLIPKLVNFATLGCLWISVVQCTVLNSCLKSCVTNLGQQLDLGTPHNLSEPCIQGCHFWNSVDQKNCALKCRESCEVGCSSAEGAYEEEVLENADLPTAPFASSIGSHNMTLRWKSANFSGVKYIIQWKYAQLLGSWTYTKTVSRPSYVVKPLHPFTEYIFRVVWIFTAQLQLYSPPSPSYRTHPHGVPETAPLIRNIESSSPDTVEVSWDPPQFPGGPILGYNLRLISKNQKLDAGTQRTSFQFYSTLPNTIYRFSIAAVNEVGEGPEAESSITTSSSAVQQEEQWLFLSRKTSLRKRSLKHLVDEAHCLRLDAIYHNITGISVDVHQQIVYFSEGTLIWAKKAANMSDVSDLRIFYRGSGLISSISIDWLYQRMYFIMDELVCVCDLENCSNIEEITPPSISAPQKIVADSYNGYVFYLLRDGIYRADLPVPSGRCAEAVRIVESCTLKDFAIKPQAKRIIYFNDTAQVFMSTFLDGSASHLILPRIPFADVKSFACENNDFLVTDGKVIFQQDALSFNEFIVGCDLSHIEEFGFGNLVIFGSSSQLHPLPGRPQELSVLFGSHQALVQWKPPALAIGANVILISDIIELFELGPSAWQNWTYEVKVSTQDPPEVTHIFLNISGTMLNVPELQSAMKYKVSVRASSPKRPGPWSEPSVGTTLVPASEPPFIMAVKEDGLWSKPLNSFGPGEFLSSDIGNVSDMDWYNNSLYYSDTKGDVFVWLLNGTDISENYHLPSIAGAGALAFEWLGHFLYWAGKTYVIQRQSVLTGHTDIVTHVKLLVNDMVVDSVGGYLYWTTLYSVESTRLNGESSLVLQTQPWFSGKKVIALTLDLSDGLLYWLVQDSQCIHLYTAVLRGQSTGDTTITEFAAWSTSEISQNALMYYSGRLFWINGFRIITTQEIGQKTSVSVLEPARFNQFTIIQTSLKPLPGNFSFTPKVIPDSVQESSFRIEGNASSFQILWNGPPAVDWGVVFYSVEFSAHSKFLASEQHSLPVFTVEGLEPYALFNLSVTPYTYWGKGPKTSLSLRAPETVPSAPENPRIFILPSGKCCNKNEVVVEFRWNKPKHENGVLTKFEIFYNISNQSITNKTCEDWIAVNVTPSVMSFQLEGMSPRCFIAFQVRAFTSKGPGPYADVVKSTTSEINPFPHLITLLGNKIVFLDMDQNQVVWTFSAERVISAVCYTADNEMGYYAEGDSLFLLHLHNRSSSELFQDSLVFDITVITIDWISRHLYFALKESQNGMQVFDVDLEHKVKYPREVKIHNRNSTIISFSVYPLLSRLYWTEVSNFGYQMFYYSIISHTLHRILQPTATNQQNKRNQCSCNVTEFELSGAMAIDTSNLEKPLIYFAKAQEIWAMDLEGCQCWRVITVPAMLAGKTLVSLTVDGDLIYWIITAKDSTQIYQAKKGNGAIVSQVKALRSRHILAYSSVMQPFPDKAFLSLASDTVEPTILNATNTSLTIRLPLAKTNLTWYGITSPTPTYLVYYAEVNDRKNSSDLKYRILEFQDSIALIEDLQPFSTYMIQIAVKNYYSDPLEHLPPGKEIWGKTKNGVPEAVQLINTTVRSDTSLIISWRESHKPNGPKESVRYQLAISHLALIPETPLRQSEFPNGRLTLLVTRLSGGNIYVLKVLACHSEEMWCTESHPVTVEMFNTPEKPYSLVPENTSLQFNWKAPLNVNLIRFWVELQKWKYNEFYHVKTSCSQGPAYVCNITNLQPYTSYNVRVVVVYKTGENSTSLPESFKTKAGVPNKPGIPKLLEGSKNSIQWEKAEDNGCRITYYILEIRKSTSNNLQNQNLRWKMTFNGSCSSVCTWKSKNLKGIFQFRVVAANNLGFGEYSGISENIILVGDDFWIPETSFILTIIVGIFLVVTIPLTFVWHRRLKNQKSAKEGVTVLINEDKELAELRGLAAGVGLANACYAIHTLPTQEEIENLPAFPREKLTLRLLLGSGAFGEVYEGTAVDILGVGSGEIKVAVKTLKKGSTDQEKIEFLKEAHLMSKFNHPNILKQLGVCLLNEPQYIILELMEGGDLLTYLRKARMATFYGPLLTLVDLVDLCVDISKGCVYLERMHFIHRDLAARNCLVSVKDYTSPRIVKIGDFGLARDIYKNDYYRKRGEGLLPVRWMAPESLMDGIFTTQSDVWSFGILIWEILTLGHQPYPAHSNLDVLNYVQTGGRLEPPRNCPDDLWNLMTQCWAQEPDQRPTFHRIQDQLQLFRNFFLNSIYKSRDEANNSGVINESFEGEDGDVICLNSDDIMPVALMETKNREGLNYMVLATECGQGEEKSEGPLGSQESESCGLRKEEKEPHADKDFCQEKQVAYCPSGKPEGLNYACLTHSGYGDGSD

CCN1CCN(c2ccc(Nc3ncc4scc(-c5cccc(NS(C)(=O)=O)c5)c4n3)cc2)CC1
Activity (MDA-MB-231 [1]): 300 mm3 | inhibition [2]: 95.9% | inhibition [3]: 96.7% | inhibition [4]: Active | inhibition [5]: 100% | inhibition [6]: 93.1% | inhibition (Focal adhesion kinase 1 [7]): Active | IC50 [8]: 22 nM | Activity (MDA-MB-231 [9]): Active | inhibition (Focal adhesion kinase 1 [10]): Active | Activity (MDA-MB-231 [11]): Active | inhibition [12]: 92.7% | Activity [13]: Non-Toxic | IC50 [14]: 4.9 nM | Activity (MDA-MB-231 [15]): Active | inhibition (INH) (MDA-MB-231 [16]): 50% | inhibition (Focal adhesion kinase 1 [17]): Active | Activity (MV4-11): Active | Activity (MDA-MB-231 [18]): Active | Activity (MDA-MB-231 [19]): Active | inhibition (Focal adhesion kinase 1 [20]): Active | inhibition (Focal adhesion kinase 1 [21]): Active | inhibition (BaF3): Active | inhibition at 10 µM (CYP2C19): 90.6% | IC50 [22]: 3.2 nM | inhibition at 10 µM (MDA-MB-231 [23]): 75%
